# In US9216964B2, “Hedgehog pathway modulators” (Novartis AG, priority 2008, dated 2015):
# pIC50: −log10 of the molar value. Like-named read-outs stand apart in the source and are kept apart here.
# Test system: hedgehog signaling pathway
# Assay: Gli-Luc Reporter Assay for Hh Pathway Inhibition (TMHh-12 cells, pTA-8×Gli-Luc reporter)
# Format: cell-based, Mouse
# Conditions: for pIC50: read-out: IC50 Ranges; for IC50: TMHh12, Ag1.5 1 nM, read-out: Hedgehog Inhibition IC50 (nM) (Ag1.5 1 nM)
# Protocol: Compounds of the present invention are assayed to evaluate their capacity to inhibit the hedgehog signaling pathway.
# Gli-Luc Reporter Assay for Hh Pathway Inhibition
# Mouse TM3 cells (obtained from American Type Culture Collection, ATCC, Manassas, Va.) are cultured in DMEM/F12 medium (Gibco/Invitrogen, Carlsbad, Calif.) supplemented with 5% heat inactivated horse serum and 2.5% FBS (Gibco/Invitrogen, Carlsbad, Calif.), 50 unit/mL penicillin and 50 μg/mL of streptomycin (Gibco/Invitrogen, Carlsbad, Calif.) at […] with 5% CO2 in air atmosphere. TM3 cells were transfected with pTA-8×Gli-Luc reporter plasmid. A stably transfected clone termed TMHh-12 was selected. […] To evaluate the IC50s of the antagonists, 8000 TMHh-12 cells were plated into each wells in 384-well plates with 50% DMEM/F12 medium supplemented with 2% FBS. After 12 hours, Hh pathway is activated by adding recombinant mouse Shh protein (expressed in E. coli, 8 μg/mL) or by adding Smo agonists. The testing compounds are added into plates with different concentrations. After 48 hours, the firefly luciferase luciferase activities are assayed with the Bright-Glo™ Luciferase Assay System (Promega, Madison, Wis.). The IC50 is measured when the effect of the compound reduces the luminescence signal by 50%. Toxicity of these compounds are evaluated in TM3 cells using CellTiter Glo assays or by TM3-Luc cell line (a TM3 cell stably transfected with a constitutive luciferase expression vector).
# [1] = Mus musculus, TMHh12, enzymatic and cellular assays for the inhibition of hedgehog signaling pathways
# [2] = enzymatic and cellular assays for the inhibition of hedgehog signaling pathways
SMILES,pIC50 [1],pIC50 [2],IC50 (Mus musculus) [nM]
CCOc1ccc(-c2cc(Nc3cccc4c3CCN(C3CCS(=O)(=O)CC3)C4)ccc2C)nn1 [Compound 327],8.00 to 9.00,–,–
COc1ccc2[nH]c(-c3cc(Nc4cccc5c4CCN(S(C)(=O)=O)C5)ccc3C)nc2c1 [Compound 15],9.00 to 12.00,–,–
Cc1ccc(Nc2cccc3c2CCN(CC(F)(F)CO)C3)cc1-c1ccc(C#N)cc1 [Compound 112],7.00 to 8.00,–,–
Cc1ccc(Nc2cccc3c2CCN(C2CCS(=O)(=O)CC2)C3)cc1-c1ncc(-c2cccnc2)[nH]1 [Compound 52],–,7.00 to 8.00,–
Cc1ccc(Nc2cccc3c2CCN(C2CS(=O)(=O)C2)C3)cc1-c1ncccc1F [Compound 275],8.00 to 9.00,–,–
CCS(=O)(=O)N1CCc2c(ncnc2Nc2ccc(C)c(-c3ccc(F)cn3)c2)C1 [Compound 299],9.00 to 12.00,–,–
C[S+]([O-])CCCN1CCc2c(cccc2Nc2ccc(Cl)c(-c3ncc(-c4ccccc4)[nH]3)c2)C1 (stereo not drawn) [Compound 47],8.00 to 9.00,–,–
Cc1ccc(Nc2cccc3c2CCN(S(C)(=O)=O)C3)cc1-c1ccc(C(C)C)cc1 [Compound 117],6.00 to 7.00,–,–
Cc1ccc(Nc2cccc3c2CCN(S(C)(=O)=O)C3)cc1-c1ncc(F)cn1 [Compound 220],8.00 to 9.00,–,–
CS(=O)(=O)N1CCc2c(cccc2Nc2ccc(F)c(-c3ccc(C#N)cc3)c2)C1 [Compound 131],7.00 to 8.00,–,–
CCOc1ccc(-c2cc(Nc3cccc4c3CCN(C3CCS(=O)(=O)C3)C4)ccc2C)nn1 (stereo not drawn) [Compound 323],–,8.00 to 9.00,–
Cc1ccc(Nc2cccc3c2CCN(S(C)(=O)=O)C3)cc1-c1ncc(-c2cnc(N(C)C)nc2)[nH]1 [Compound 107],8.00 to 9.00,–,–
Cc1ccc(Nc2cccc3c2CCN(S(C)(=O)=O)C3)cc1C(=O)Nc1ccc(F)cc1 [Compound 185],9.00 to 12.00,–,0.4
Cc1ccc(Nc2cccc3c2CCN(S(C)(=O)=O)C3)cc1COc1ccccn1 [Compound 237],6.00 to 7.00,–,–
CS(=O)(=O)N1CCc2c(cccc2Nc2ccc(Cl)c(-c3ccc(C#N)cc3)c2)C1 [Compound 134],7.00 to 8.00,–,–
Cc1ccc(Nc2cccc3c2CCN(S(C)(=O)=O)C3)cc1-c1cnc(C#N)cn1 [Compound 208],6.00 to 7.00,–,–

SMILES,pIC50 [1],pIC50 [2],IC50 (Mus musculus) [nM]
CCOc1ccc(-c2cc(Nc3cccc4c3CCN([C@H]3CCS(=O)(=O)C3)C4)ccc2C)nn1 [Compound 340],8.00 to 9.00,–,–
CC(C(=O)O)N1CCc2c(Nc3ccc(Cl)c(-c4nc(-c5ccccc5)c[nH]4)c3)cccc2C1=O (stereo not drawn) [Compound 77],6.00 to 7.00,–,–
Cc1c(CN(C)C)cc(Nc2cccc3c2CCN(S(C)(=O)=O)C3)cc1-c1ccc(F)cn1 [Compound 197],5.00 to 6.00,–,–
CNc1ncc2nc(-c3cc(Nc4cccc5c4CCN(S(C)(=O)=O)C5)ccc3C)sc2n1 [Compound 94],7.00 to 8.00,–,–
Cc1ccc(Nc2nccc3c2CCN(S(C)(=O)=O)C3)cc1-c1cc2ccccc2cn1 [Compound 331],7.00 to 8.00,–,–
COc1ccc(-c2cc(Nc3cccc4c3CCN(CCS(C)(=O)=O)C4)ccc2C)nn1 [Compound 258],8.00 to 9.00,–,–
Cc1ccc(Nc2nccc3c2CCN(S(C)(=O)=O)C3)cc1C(=O)Nc1ccccc1 [Compound 247],7.00 to 8.00,–,–
Clc1ccc(Nc2ccc3c(c2)CN(C2CCOCC2)CC3)cc1-c1nc(-c2ccccc2)c[nH]1 [Compound 346],7.00 to 8.00,–,–
Cc1ccc(Nc2cccc3c2CCN(S(C)(=O)=O)C3)cc1-c1cccc(F)n1 [Compound 218],7.00 to 8.00,–,–
Cc1ccc(Nc2cccc3c2CCN(S(C)(=O)=O)C3)cc1-c1ccc(CNCCO)cc1 [Compound 158],6.00 to 7.00,–,–
O=C(O)CCN1CCc2c(Nc3ccc(Cl)c(-c4nc(-c5ccccc5)c[nH]4)c3)cccc2C1=O [Compound 50],7.00 to 8.00,–,–
Cc1cc(C#N)ccc1-c1cc(Nc2cccc3c2CCN(S(C)(=O)=O)C3)ccc1C [Compound 163],7.00 to 8.00,–,47
Cc1ccc(-c2cc(Nc3cccc4c3CCN(CC(C)(C)F)C4)ccc2C)nc1 [Compound 200],9.00 to 12.00,–,–
CS(=O)(=O)N1CCc2c(cccc2Nc2cccc(-c3ccc(C#N)cc3)c2)C1 [Compound 132],7.00 to 8.00,–,–
Cc1cnc(-c2cc(Nc3cccc4c3CCN(C3CCS(=O)(=O)C3)C4)ccc2C)nc1 (stereo not drawn) [Compound 267],7.00 to 8.00,–,–
